Experimental data from US10045978B2 (AB SCIENCE, priority 2010, dated 2018).

System: patients with indolent forms of mastocytosis with handicap, D816V absent in at least one infiltrated organ
Assay: Example 1 phase 2a study, response assessment
Assay type: in vivo, human
Parameters: Hamilton rating Δ Mean ± SD / QLQ-C30 Symptom Δ Mean ± SD / QLQ-C30 Global Health Δ Mean ± SD / AFIRMM Δ Mean ± SD / Hamilton rating ΔMean ± SD / QLQC30 Symptom ΔMean ± SD / QLQC30 Global Health ΔMean ± SD / AFIRMM ΔMean ± SD: scale not given here
Method: Eligible patients were aged >18 years, had previously documented indolent systemic, smoldering systemic or cutaneous mastocytosis as per the WHO classification with associated disability as the result of mast cell released mediators and had not responded to usual symptomatic treatments for more the 6 months. […] A single occurrence of this criterion was deemed sufficient for inclusion and so no systematic examination of multiple organs was carried out specifically for this study.
Patients were classified as having a handicap if after appropriate symptomatic treatments they fulfilled at least one of the following a priori criteria: number of flushes/day ≥1; pruritus score ≥6; number of stools ≥4/day; micturition frequency ≥8/day; Hamilton rating for depression ≥10; or EORTC quality-of-life questionnaire (QLQ-C30) symptom score, functional score, and global health status of >0. Patients were excluded if they experienced inadequate organ function defined via blood test levels, or an Eastern Cooperative Oncology Group performance status >2. Other exclusion criteria included: life expectancy <6 months, severe or uncontrolled medical disease, and patients who were pregnant or nursing.
In accordance to the AFIRMM study (Hermine O, et al., 2008, PLoS ONE. 3:e2266), evaluation of treatment response was based upon the change of clinical symptoms associated with a patient's handicaps at week 12 (W12) relative to baseline. Primary endpoints were daily frequency of flushes; pruritus score; and Hamilton rating for depression, as well as, daily stool and micturition frequencies; QLQ-C30 global health status, functional, and symptom scores. […] For those patients entering the extension phase, assessments were performed every 4 weeks for the first 3 months of extension, and every 12 weeks thereafter. Secondary endpoints included the W12 assessment of AFIRMM score (a validated questionnaire assessing the self-perceived severity of mastocytosis) (Hermine O, et al., 2008, PLoS ONE. 3:e2266); overall patient assessment (OPA) score; tryptase levels; and change in organ mast cell infiltration. Determination of D816V mutation and serum tryptase levels was conducted following procedures described previously (Hermine O, et al., 2008, PLoS ONE. 3:e2266). Overall clinical response analysis at W12 defined a responder as having an improvement of ≥50% in baseline handicap of a key response endpoint (Hamilton rating, flushes, or pruritus) without deterioration or emergence of handicap. Any patient with deterioration of ≥50% in any handicap, and/or with emergence of a new handicap with an increase of ≥50% from baseline was considered as worsening. Any patient who discontinued the study before W12 was considered a non responder. Discrimination between dose regimens was investigated by analyses of the ‘time to first response’, according to the initial dosage, and ‘dose at time of first response’ in key response endpoints.
Response analysis was performed on subgroups of the ITT population according to a patient's handicap at baseline and for whom response was evaluated at W12; referred to hereafter as the handicap-related population. No data imputation was implemented. The per protocol (PP) population was defined as a subset of a given handicap-related population, which in addition had presented no major protocol deviations. Summary response data are presented using descriptive statistics with mean improvement compared to baseline in each handicap cohort, regardless of disease classification. The appropriate Wilcoxon or Fisher tests were used for group comparison of baseline disease, demographic characteristics between dose level groups and response relative to baseline. Subpopulation analysis was also conducted according to initial c-Kit status.

[1] = W12, Group 1 (no confirmed D816V)
[2] = W12, Group 2 (mixed c-Kit status)
[3] = W12, handicap-related population

In the case of `Cc1ccc(NC(=O)c2ccc(CN3CCN(C)CC3)cc2)cc1Nc1nc(-c2cccnc2)cs1` [masitinib, 4-(4-methylpiperazin-1-ylmethyl)-N-[4-methyl-3-(4-pyridin-3ylthiazol-2-ylamino)phenyl]benzamide], the “skin mast cell infiltration: good partial response (≥50% reduction)” value (1/14 evaluable patients) is reported as 7%, the “OPA: worsening of health status” value (1/20 patient at one time point) is reported as 5% and the “skin mast cell infiltration: partial response (1 to 49% reduction)” value (6/14 evaluable patients) is reported as 43%. For the same molecule, the “skin mast cell infiltration: no change” value (7/14 evaluable patients) was 50%, the “OPA score improvement of at least one point” value (9/20 patients) was 45% and the “first response events at lower dose level of 4.5 mg/kg/day” value (48/79 events) was 60%. The “first response events occurring at dose ≤6 mg/kg/day” value (76/79 events) was 96%, the “first response events: AFIRMM score” value (Total, all doses) was 10 and the “first response events: Flush” value (Total, all doses) was 17. The “first response events: Hamilton” value (Total, all doses) was 10, the “first response events: Micturition” value (Total, all doses) was 1 and the “first response events: OPA score” value (Total, all doses) was 7. For the same molecule, the “first response events: Pruritus” value (Total, all doses) was 11, the “first response events: QLQ30 Functional” value (Total, all doses) was 5 and the “first response events: QLQ30 Global” value (Total, all doses) was 6. The “first response events: QLQ30 Symptom” value (Total, all doses) was 5, the “first response events: Stool” value (Total, all doses) was 7 and the “first response events: Total events” value (Total, all doses) was 79. For the same molecule, the “QLQ-C30 functional score improvement” value (W12) was 39%±81, the “QLQ-C30 global health status improvement” value (W12) was 51%±108 and the “QLQ-C30 symptom score improvement” value (W12) was 2.5%±69. For the same molecule, the “clinical response rate: Hamilton rating” value (W12) was 50%, the “clinical response rate: flushes” value (W12) was 60% and the “clinical response rate: pruritus” value (W12) was 25%. For the same molecule, the “OPA: impaired health status at baseline reporting none or minimal impairment” value (W12, 3/20 evaluable patients) was 15%, the “AFIRMM Δ Mean ± SD” value (W12, All) was −61.5 ± 49.6 and the “Flushes per day Δ Mean ± SD” value (W12, All) was −1.7 ± 1.5. The “Hamilton rating Δ Mean ± SD” value (W12, All) was −5.1 ± 4.4, the “Micturitions per day Δ Mean ± SD” value (W12, All) was −3.1 ± 3.7 and the “Pruritus Δ Mean ± SD” value (W12, All) was −3.0 ± 3.4. The “QLQ-C30 Functional Δ Mean ± SD” value (W12, All) was 8.7 ± 18.8, the “QLQ-C30 Global Health Δ Mean ± SD” value (W12, All) was 12.5 ± 24.7 and the “QLQ-C30 Symptom Δ Mean ± SD” value (W12, All) was −6.1 ± 13.6. The “Stools per day Δ Mean ± SD” value (W12, All) was −1.9 ± 3.6, the “AFIRMM Δ Mean ± SD” value [1] was −63.5 ± 52.9 and the “Flushes per day Δ Mean ± SD” value [1] was −2.0 ± 1.6. For the same molecule, the “Hamilton rating Δ Mean ± SD” value [1] was −4.6 ± 4.3, the “Micturitions per day Δ Mean ± SD” value [1] was −3.0 ± 2.8 and the “Pruritus Δ Mean ± SD” value [1] was −3.5 ± 3.6. For the same molecule, the “QLQ-C30 Functional Δ Mean ± SD” value [1] was 8.7 ± 21.0, the “QLQ-C30 Global Health Δ Mean ± SD” value [1] was 14.1 ± 27.0 and the “QLQ-C30 Symptom Δ Mean ± SD” value [1] was −5.4 ± 14.7. The “Stools per day Δ Mean ± SD” value [1] was −2.0 ± 4.0, the “AFIRMM Δ Mean ± SD” value [2] was −53.5 ± 38.5 and the “Flushes per day Δ Mean ± SD” value [2] was −0.8 ± 0.5. The “Hamilton rating Δ Mean ± SD” value [2] was −10.0, the “Micturitions per day Δ Mean ± SD” value [2] was −3.5 ± 7.8 and the “Pruritus Δ Mean ± SD” value [2] was −1.0 ± 2.2. The “QLQ-C30 Functional Δ Mean ± SD” value [2] was 8.6 ± 4.8, the “QLQ-C30 Global Health Δ Mean ± SD” value [2] was 6.3 ± 12.5 and the “QLQ-C30 Symptom Δ Mean ± SD” value [2] was −9.5 ± 6.2. For the same molecule, the “Stools per day Δ Mean ± SD” value [2] was −1.5 ± 2.1, the overall clinical response (W12, ITT) was 14/25 and the “tryptase level, mean reduction” value (W12, PP patients with elevated tryptase (>15 ng/mL) at baseline (N=5)) was 23%. For the same molecule, the micturition frequency improvement (W12, PP population) was 39%±14, the stool frequency improvement (W12, PP population) was 44%±63 and the “AFIRMM global score improvement” value (W12, evaluable patients (N=20)) was 40%±27. For the same molecule, the micturition frequency improvement [3] was 23%±30, the stool frequency improvement [3] was 29%±58 and the “bone marrow mast cell infiltration” value (W12, one patient of 15 evaluable, 7% at baseline) was 1%. The “first response events: Cumulative Frequency” value (at 1.5 mg/kg/day) was 0%, the “first response events: Total events” value (at 1.5 mg/kg/day) was 0 and the “first response events: AFIRMM score” value (at 3.0 mg/kg/day) was 4. The “first response events: Cumulative Frequency” value (at 3.0 mg/kg/day) was 46%, the “first response events: Flush” value (at 3.0 mg/kg/day) was 9 and the “first response events: Hamilton” value (at 3.0 mg/kg/day) was 4. The “first response events: OPA score” value (at 3.0 mg/kg/day) was 2, the “first response events: Pruritus” value (at 3.0 mg/kg/day) was 5 and the “first response events: QLQ30 Functional” value (at 3.0 mg/kg/day) was 3. For the same molecule, the “first response events: QLQ30 Global” value (at 3.0 mg/kg/day) was 2, the “first response events: QLQ30 Symptom” value (at 3.0 mg/kg/day) was 2 and the “first response events: Stool” value (at 3.0 mg/kg/day) was 5. The “first response events: Total events” value (at 3.0 mg/kg/day) was 36, the “first response events: AFIRMM score” value (at 4.5 mg/kg/day) was 1 and the “first response events: Cumulative Frequency” value (at 4.5 mg/kg/day) was 61%. The “first response events: Flush” value (at 4.5 mg/kg/day) was 3, the “first response events: Hamilton” value (at 4.5 mg/kg/day) was 2 and the “first response events: Pruritus” value (at 4.5 mg/kg/day) was 2. The “first response events: QLQ30 Functional” value (at 4.5 mg/kg/day) was 1, the “first response events: QLQ30 Global” value (at 4.5 mg/kg/day) was 2 and the “first response events: QLQ30 Symptom” value (at 4.5 mg/kg/day) was 1. The “first response events: Total events” value (at 4.5 mg/kg/day) was 12.
